What was measured:
Assay type in all cases: in vivo, Sorghum bicolor
[1] = test system: endogamic Sorghum line 80237; test: Field spraying with imidazolinone herbicides, dry matter of aerial tissues, wild-type line; settings: 10 days after spraying, mean of 3 experiments
Description: (§1) Subsequently, the effect to herbicide spraying on mutant imidazolinone-resistant plants ADV-IMI-R (original mutation) was compared to the response of endogamic Sorghum line 80237 (Advanta proprietary elite line). To that end, plants were treated on the field with three herbicides belonging to the imidazolinone family: imazethapyr, imazapir, and imazapic. Four different rates were assayed: 1×, 2×, 3×, and 4× for each of the herbicides.
(§2) Ten days after spraying, all plants were assayed for dry matter (DM) in aerial tissues.
(§3) The response of the ADV-IMI-R mutant of the invention was compared to that of endogamic line 80237. […] The disclosed values are the average of three experiments.
(§4) Sorghum line 80237 (Advanta's proprietary elite line) and imidazolinone-resistant ADV-IMI-R mutant of the present invention (original mutation) were sprayed on the field with three herbicides from the group of imidazolinones: imazethapyr, imazapyr, and imazapic. Four different rates were assayed for each of the herbicides: 1×, 2×, 3×, and 4× (being 1× the recommended application rate) (see Table 1 above):
(§5) Field experiments were carried out in Venado Tuerto, and planting took place on Dec. 1, 2010. The herbicide was sprayed 20 days after emergence (stage V6). All treatments were compared to their respective untreated controls. The experimental design consisted of plots divided into 3 replicates (main plot: treatment with herbicide; sub-plots: line).
(§6) Ten days after spraying, all plants were assayed for dry matter (DM) in aerial tissues. Herbicide response was assessed as a DM percentage in aerial tissue of the respective untreated control.
(§7) Thus, the line sensitive to herbicides i for each rate j was expressed as:
(§8) [formula] • DMij % Control is the mean value of 3 experiments for each treatment from each line.

[2] = test system: ADV-IMI-R mutant Sorghum line; test: Field spraying with imidazolinone herbicides, dry matter of aerial tissues, resistant mutant; settings: for DM % Control: ADV-IMI-R, 10 days after spraying, mean of 3 experiments; for Response of ADV-IMI-R mutant to herbicide: field spraying, even at a rate of 4×
Description: as §1, §2, §3, §4, §5, §6, §7, §8

[3] = test system: ADV-IMI-R × 90523 F2 progeny; test: Phenotypic rating of segregating F2 population after spraying with imazethapyr; settings: rate 3X
Description: Inheritance of resistance to imidazolinones, for example imazethapyr, was assessed in a segregating F2 Sorghum population generated by crossing an imazethapyr susceptible line with the ADV-IMI-R mutant. The F2 plants thus obtained were sprayed with imazethapyr (Pivot®, BASF) at a rate of 3×, 20 days in stage V6 after emergence and phenotypic symptoms were assessed 10 days after treatment.
The correlation between resistance phenotypes and the number of mutant alleles was analyzed using the SNP-SbAHAS marker. To that end, chlorosis and death phenotypes of individual plants from the F2 progeny (ADV-IMI-R×90523) were studied after spraying with imazethapyr. Concomitantly, the genotype of the SNP-SbAHAS marker was studied. The correlation between the molecular marker SNP-SbAHAS and resistance to imazethapyr (measured as a rating of phenotypes) was determined using the Chi-square Independence test.
A targeted crossing was carried out between Sorghum line 90523 (Advanta proprietary elite line, susceptible to imidazolinones) and the imidazolinone-resistant ADV-IMI-R mutant (VT09-9754-48-6-BK selection). The resulting F1 plants were auto-pollinated and F2 seeds were harvested. The F2 seeds were planted in the field in Venado Tuerto, in October 2010. The F2 plants (177 plants) were sprayed with imazethapyr (Pivot®, BASF) at a rate of 3× (where 1× is the rate recommended by the manufacturer for commercial use which is equivalent to 100 ml a.i./ha). Before spraying, leaf tissue from each of the 177 F2 plants from both ADV-IMI-R mutant (VT09-9754-48-6-BK selection) and wild-type line 90523 were collected to isolate genomic DNA, which was resuspended in water at a final concentration of 100 ng/μl for use in genotypic analysis.
Herbicide was sprayed 20 days after emergence (stage V6). The plants were assessed ten days after spraying, and the herbicidal effect was classified into three categories by visually assessed symptoms according to the following phenotypic scoring: • 1=no damage • 2=chlorotic • 3=death
Individual F2 progeny plants obtained by a ADV-IMI-R×90523 crossing were phenotypically classified (no damage, chlorosis and death) after spraying with imazethapyr (using the method of Example 4) and then genotypically classified using the molecular marker SNP-SbAHAS which is specific of the induced mutation in AHAS (using the method described in Example 5).

[4] = 10 days after treatment, 177 F2 plants

Row | Structure (SMILES) | DM % Control ([1]; rate 1X) | DM % Control ([1]; rate 2X) | DM % Control ([1]; rate 3X) | DM % Control ([1]; rate 4X) | DM % Control ([2]; rate 1X) | DM % Control ([2]; rate 2X) | DM % Control ([2]; rate 3X) | DM % Control ([2]; rate 4X) | Response of ADV-IMI-R mutant to herbicide [2] | Amount of F2 progeny, phenotype Chlorotic (rating 2) [3, 4] | Amount of F2 progeny, phenotype Death (rating 3) [3, 4] | Amount of F2 progeny, phenotype No damage (rating 1) [3, 4] | Amount of F2 individuals, genotype A/G, phenotype Chlorotic ([3]; heterozygous) | Amount of F2 individuals, genotype A/G, phenotype No damage ([3]; heterozygous) | Amount of F2 individuals, genotype A/A, phenotype Chlorotic ([3]; homozygous AHAS mutant) | Amount of F2 individuals, genotype A/A, phenotype No damage ([3]; homozygous AHAS mutant) | Amount of F2 individuals, genotype G/G, phenotype Death ([3]; wild-type homozygous)
1 | Cc1cnc(C2=NC(=O)C(C)(C(C)C)N2)c(C(=O)O)c1 (centres unmarked) [Imazapic] | 22% | 13% | 15% | 28% | 161% | 123% | 244% | 272% | resistant | – | – | – | – | – | – | – | –
2 | CC(C)C1(C)N=C(c2ncccc2C(=O)O)NC1=O (centres unmarked) [Imazapyr] | 14% | 21% | 14% | 19% | 139% | 140% | 235% | 191% | resistant | – | – | – | – | – | – | – | –
3 | CCc1cnc(C2=NC(C)(C(C)C)C(=O)N2)c(C(=O)O)c1 (centres unmarked) [Imazethapyr] | 17% | 12% | 14% | 23% | 162% | 175% | 263% | 273% | resistant | 84 | 43 | 50 | 83 | 13 | 1 | 37 | 43

Reference: patent US12457954B2, “Sorghum plants having a mutant polynucleotide encoding the large subunit of mutated acetohydroxyacid synthase protein and increased resistance to herbicides” (Advanta Holdings BV, priority 2012, dated 2025)
